Test results: PubChem BioAssay AID2060906 (Molecular Pharmacology Branch, DTP, NCI, 2025)
Several values for one entry are separate records, joined by “and”; a condition that tells them apart may be missing. Identical values can stand only once.

System: 485176-168-R4-J1-PDC complex spheroid growth
Experiment: Anticancer human tumor 485176-168-R4-J1-PDC patient-derived pancreatic adenocarcinoma cell line growth inhibition [RAS]
Conditions: for viability, T/C: stronger effect = lower value
Text: RAS pathway inhibitors in Combinations in Complex Spheroids
A high-throughput screen of multi-cell type tumor spheroids was designed to identify active combinations of RAS pathway inhibitors and targeted small molecules. Complex spheroids include a stromal component modeled by human endothelial cells (HUVEC) and fibroblasts modeled by human mesenchymal stem cells (MSCs). The concentration ranges selected for each drug and investigational agent were based upon clinically achievable concentrations if the clinical Cmax of the agent was known.
Compounds. The drugs and investigational agents: abemaciclib (NSC768073), cobimetinib (NSC768068), divarasib (GDC6063, NSC841802), docetaxel (NSC628503), GDC-1971 (RLY-1971, NSC841576), gemcitabine (NSC613327), inavolisib (NSC800729), ipatasertib (NSC767898), KB-0742 (NSC834161), MRTX-1133 (NSC836407), osimertinib (NSC779217), RMC-4630 (NSC839698), RMC-6236 (NSC851965), RMC-6291 (NSC852671), Ro-3306 (NSC812927), sapanisertib (NSC764658), SN-38 (NSC673596), staurosporine (NSC755774), SY5609 (NSC837396), and tovorafenib (DAY101, NSC766906), were obtained from the National Cancer Institute (NCI) Developmental Therapeutics Program Chemical Repository. The FDA-approved anticancer drug set is available from the NCI Developmental Therapeutics Program. […] The stock solutions were prepared in dimethyl sulfoxide (DMSO, Sigma-Aldrich, St. Louis, MO, cat. D2650) at 800-fold the tested concentration and stored at -70 degrees C prior to their use. All drugs and investigational agents were tested over a range starting from a high concentration at or near the clinical Cmax and decreasing in half-log increments. If the clinical Cmax for an agent had not been determined, the highest concentration tested was 10 microM.
Cell Culture. All cells were maintained in an incubator at 37 degrees C and 5% CO2 with 95% humidity. The PDC lines were cultured according to standard operating procedures established by the NCI PDMR. All PDCs were thawed and cultured in Matrigel-coated flasks prepared with a working solution of 1X Ham's F-12 nutrient mix, without supplementation (Invitrogen, Waltham, MA, cat. 11765054), 100 U/mL penicillin-streptomycin (Invitrogen, cat. 15140122), and 2.5% Matrigel (Corning Inc., Corning, NY, cat. 354248) for the first three passages. The 362531-283-R-J2-PDC and 782815-120-R-J1-PDC lines were cultured in 6C/Colon 1B media, which includes advanced DMEM/F-12 (Thermo Fisher Scientific, cat. 12634028), 10 mM HEPES (Thermo Fisher Scientific, cat. 15630080), 1X GlutaMAX supplement (Thermo Fisher Scientific, cat. 35050061), 0.1 mg/mL primocin (InvivoGen, San Diego, CA, cat. ant-pm-2), 10% defined fetal bovine serum, heat inactivated (HyClone Laboratories Inc., Logan, UT, cat. SH30070.03HI), 50% L-WRN conditioned media (ATCC, cat. CRL-3276), 1.25 mM N-Acetyl-L-cysteine (Sigma-Aldrich, cat. A9165), 10 mM nicotinamide (Sigma-Aldrich, cat. N0636), 1X B-27 supplement (Thermo Fisher Scientific, cat. 17504044), 1X N-2 supplement (Thermo Fisher Scientific, cat. 17502048), 50 ng/mL human EGF (Thermo Fisher Scientific, cat. PHG0311), and 10 microM Y-27632 dihydrochloride (Tocris Bioscience, cat. 1254). The K12877-001-R-J1-PDC line was cultured in 6I media, which includes all 6C/Colon 1B media plus 10 ng/mL human FGF-10 (PeproTech, cat. 100-26), 1 ng/mL human FGF-2 (PeproTech, cat. 100-18B), 1 µM prostaglandin E2 (Tocris Bioscience, cat. 2296), […] hydrocortisone (Sigma-Aldrich, cat. H4001), and […] bovine insulin (Sigma-Aldrich, cat. I6634). The K86415-001-R-J1-PDC line was cultured in 6D media, which includes all 6C/Colon 1B media components minus the L-WRN conditioned media. The 485176-168-R4-J1-PDC was cultured in PANC media, which includes all 6C/Colon 1B media plus 100 ng/mL human FGF-10 (PeproTech, cat. 100-26), 500 nM SB-431542 (Selleckchem, cat. S1067), and 10 nM gastrin (Tocris Bioscience, cat. 3006). […]
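Note: spheroids exposed to compounds for seven days before readout.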
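Throughout, for viability, T/C: luminescence viability expressed relative to DMSO vehicle wells set as 100%.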

Compound: CCC(CC)c1cc(NC2CCC(N)C2)n2nccc2n1 (centres undefined) + CCn1c(-c2cccnc2C(C)OC)c2c3cc(ccc31)N1CCOC(CC(NC(=O)C(C(C)C)N(C)C(=O)C3(F)CCN(C(=O)C#CC(C)(C)N(C)C)CC3)C(=O)N3CCCC(N3)C(=O)OCC(C)(C)C2)C1
- IC50 (curve of first compound, second compound 0.000949 µM): 1260 nM
- IC50 (curve of first compound, second compound 0.003 µM): 1440 nM
- IC50 (curve of first compound, second compound 0.00949 µM): 1270 nM
- IC50 (curve of first compound, second compound 0.03 µM): 1080 nM
- IC50 (curve of first compound, second compound 0.0949 µM): 1010 nM
- IC50 (curve of first compound, second compound 0.3 µM): 521 nM
- viability, T/C (second compound 0.000949 µM, first compound 0.0316 µM): 94.6%
- viability, T/C (second compound 0.000949 µM, first compound 0.1 µM): 117%
- viability, T/C (second compound 0.000949 µM, first compound 0.316 µM): 86%
- viability, T/C (second compound 0.000949 µM, first compound 1 µM): 64.1%
- viability, T/C (second compound 0.000949 µM, first compound 3.16 µM): 2.09%
- viability, T/C (second compound 0.000949 µM, first compound 10 µM): 0.42%
- viability, T/C (second compound 0.003 µM, first compound 0.0316 µM): 105%
- viability, T/C (second compound 0.003 µM, first compound 0.1 µM): 104%
- viability, T/C (second compound 0.003 µM, first compound 0.316 µM): 100%
- viability, T/C (second compound 0.003 µM, first compound 1 µM): 72.1%
- viability, T/C (second compound 0.003 µM, first compound 3.16 µM): 2.19%
- viability, T/C (second compound 0.003 µM, first compound 10 µM): 0.46%
- viability, T/C (second compound 0.00949 µM, first compound 0.0316 µM): 88.4%
- viability, T/C (second compound 0.00949 µM, first compound 0.1 µM): 79.7%
- viability, T/C (second compound 0.00949 µM, first compound 0.316 µM): 98.8%
- viability, T/C (second compound 0.00949 µM, first compound 1 µM): 62.6%
- viability, T/C (second compound 0.00949 µM, first compound 3.16 µM): 2.5%
- viability, T/C (second compound 0.00949 µM, first compound 10 µM): 0.59%
- viability, T/C (second compound 0.03 µM, first compound 0.0316 µM): 96%
- viability, T/C (second compound 0.03 µM, first compound 0.1 µM): 105%
- viability, T/C (second compound 0.03 µM, first compound 0.316 µM): 95.9%
- viability, T/C (second compound 0.03 µM, first compound 1 µM): 53.7%
- viability, T/C (second compound 0.03 µM, first compound 3.16 µM): 2.5%
- viability, T/C (second compound 0.03 µM, first compound 10 µM): 0.41%
- viability, T/C (second compound 0.0949 µM, first compound 0.0316 µM): 87%
- viability, T/C (second compound 0.0949 µM, first compound 0.1 µM): 77.3%
- viability, T/C (second compound 0.0949 µM, first compound 0.316 µM): 94.2%
- viability, T/C (second compound 0.0949 µM, first compound 1 µM): 50.3%
- viability, T/C (second compound 0.0949 µM, first compound 3.16 µM): 2.64%
- viability, T/C (second compound 0.0949 µM, first compound 10 µM): 0.46%
- viability, T/C (second compound 0.3 µM, first compound 0.0316 µM): 82.9%
- viability, T/C (second compound 0.3 µM, first compound 0.1 µM): 72.8%
- viability, T/C (second compound 0.3 µM, first compound 0.316 µM): 64.5%
- viability, T/C (second compound 0.3 µM, first compound 1 µM): 32.7%
- viability, T/C (second compound 0.3 µM, first compound 3.16 µM): 2.76%
- viability, T/C (second compound 0.3 µM, first compound 10 µM): 0.53%

Compound: Cc1nc(N2CCC3(CC2)COC(C)C3N)c(CO)nc1Sc1ccnc(N)c1Cl (centres undefined)
- viability, T/C (compound 0.0316 µM): 102% [middle of 4 runs]
- viability, T/C (compound 0.1 µM): 86.5% [middle of 4 runs]
- viability, T/C (compound 0.316 µM): 82.8% [middle of 4 runs]
- viability, T/C (compound 1 µM): 74.3% [middle of 4 runs]
- viability, T/C (compound 3.16 µM): 84.5% [middle of 4 runs]
- viability, T/C (compound 10 µM): 63.4% (2×) and 81.9% and 74.9%
- IC50 (curve of compound): > 10000 nM
